Experimental data: publication PMC6458995, “MAP4K4 Inhibition Promotes Survival of Human Stem Cell-Derived Cardiomyocytes and Reduces Infarct Size In Vivo” (Cell Stem Cell, 2019)

Assays:
Assay in all cases: Dundee kinase panel
Assay type in all cases: biochemical
Conditions in all cases: for remaining activity at 1 µM: read-out: residual activity
p38g MAPK = biological target: T1, p38g MAPK (Homo sapiens, UniProt P53778)
T1 construct: lines 1-140) and Reaction Biology
T1 sequence (P53778 1-367): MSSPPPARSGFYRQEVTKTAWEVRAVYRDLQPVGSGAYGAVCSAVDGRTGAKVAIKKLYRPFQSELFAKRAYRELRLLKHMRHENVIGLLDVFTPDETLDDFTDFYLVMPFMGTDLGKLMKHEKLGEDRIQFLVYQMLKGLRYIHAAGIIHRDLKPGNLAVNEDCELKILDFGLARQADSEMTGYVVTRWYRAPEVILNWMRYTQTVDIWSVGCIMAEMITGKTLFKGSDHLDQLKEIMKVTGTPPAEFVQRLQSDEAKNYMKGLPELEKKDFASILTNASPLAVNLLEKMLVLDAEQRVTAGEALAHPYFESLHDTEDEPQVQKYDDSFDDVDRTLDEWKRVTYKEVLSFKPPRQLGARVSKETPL
Description: (§1) Compounds were screened at 1 μM. For key hits, pIC50 values were then determined by HTRF as above. […] Stability in mouse and human liver microsomes was determined by Cyprotex.

PIM1 = biological target: T2, PIM1 (Homo sapiens, UniProt P11309)
T2 construct: lines 1-140) and Reaction Biology
T2 sequence (P11309 whole entry): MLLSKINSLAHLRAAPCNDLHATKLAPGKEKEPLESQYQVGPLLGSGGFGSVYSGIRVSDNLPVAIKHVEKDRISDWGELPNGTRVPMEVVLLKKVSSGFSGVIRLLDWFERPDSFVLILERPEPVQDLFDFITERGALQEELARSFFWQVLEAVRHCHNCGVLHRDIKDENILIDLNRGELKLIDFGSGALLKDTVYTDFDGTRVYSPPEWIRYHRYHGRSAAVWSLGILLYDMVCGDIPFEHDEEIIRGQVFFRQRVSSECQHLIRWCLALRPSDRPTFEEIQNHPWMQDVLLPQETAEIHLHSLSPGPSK
Description: as §1

ROCK 2 = biological target: T3, ROCK 2 (Homo sapiens, UniProt O75116)
T3 construct: lines 1-140) and Reaction Biology
T3 sequence (O75116 whole entry): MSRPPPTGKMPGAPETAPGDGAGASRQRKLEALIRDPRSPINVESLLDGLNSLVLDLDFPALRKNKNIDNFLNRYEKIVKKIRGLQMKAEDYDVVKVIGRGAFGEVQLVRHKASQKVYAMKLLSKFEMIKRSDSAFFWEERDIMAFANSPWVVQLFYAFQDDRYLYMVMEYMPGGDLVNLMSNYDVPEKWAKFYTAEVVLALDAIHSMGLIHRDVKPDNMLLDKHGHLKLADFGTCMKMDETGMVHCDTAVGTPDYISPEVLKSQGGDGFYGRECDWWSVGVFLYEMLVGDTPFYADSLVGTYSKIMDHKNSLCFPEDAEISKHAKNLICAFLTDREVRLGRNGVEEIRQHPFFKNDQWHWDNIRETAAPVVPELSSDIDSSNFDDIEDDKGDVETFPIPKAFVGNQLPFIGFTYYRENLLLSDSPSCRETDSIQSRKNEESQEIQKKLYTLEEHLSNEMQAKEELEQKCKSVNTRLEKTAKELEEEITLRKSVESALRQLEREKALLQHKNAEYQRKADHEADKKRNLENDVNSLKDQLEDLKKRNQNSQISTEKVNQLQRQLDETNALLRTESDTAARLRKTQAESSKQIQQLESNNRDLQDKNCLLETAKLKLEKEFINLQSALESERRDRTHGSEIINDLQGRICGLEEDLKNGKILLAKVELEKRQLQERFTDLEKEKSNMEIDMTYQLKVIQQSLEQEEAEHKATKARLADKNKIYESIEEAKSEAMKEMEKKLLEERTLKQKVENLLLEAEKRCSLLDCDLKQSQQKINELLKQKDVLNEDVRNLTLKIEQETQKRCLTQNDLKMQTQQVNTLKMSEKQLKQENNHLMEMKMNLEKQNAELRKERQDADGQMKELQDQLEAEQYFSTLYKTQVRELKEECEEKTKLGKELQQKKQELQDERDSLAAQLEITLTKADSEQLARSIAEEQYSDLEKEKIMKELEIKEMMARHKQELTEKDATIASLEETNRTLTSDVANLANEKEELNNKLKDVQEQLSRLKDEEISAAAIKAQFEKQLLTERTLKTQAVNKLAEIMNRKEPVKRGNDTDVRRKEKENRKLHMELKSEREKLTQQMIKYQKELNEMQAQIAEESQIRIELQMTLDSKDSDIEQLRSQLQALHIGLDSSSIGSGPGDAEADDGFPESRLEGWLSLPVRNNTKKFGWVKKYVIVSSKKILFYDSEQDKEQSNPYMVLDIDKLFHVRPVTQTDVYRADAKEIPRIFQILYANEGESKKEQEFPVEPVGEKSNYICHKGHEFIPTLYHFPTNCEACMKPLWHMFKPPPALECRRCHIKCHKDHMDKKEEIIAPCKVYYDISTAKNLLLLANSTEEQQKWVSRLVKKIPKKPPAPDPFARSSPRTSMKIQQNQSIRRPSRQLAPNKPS
Description: as §1

Aurora B = biological target: T4, Aurora B (Homo sapiens, UniProt Q96GD4)
T4 construct: lines 1-140) and Reaction Biology
T4 sequence (Q96GD4 whole entry): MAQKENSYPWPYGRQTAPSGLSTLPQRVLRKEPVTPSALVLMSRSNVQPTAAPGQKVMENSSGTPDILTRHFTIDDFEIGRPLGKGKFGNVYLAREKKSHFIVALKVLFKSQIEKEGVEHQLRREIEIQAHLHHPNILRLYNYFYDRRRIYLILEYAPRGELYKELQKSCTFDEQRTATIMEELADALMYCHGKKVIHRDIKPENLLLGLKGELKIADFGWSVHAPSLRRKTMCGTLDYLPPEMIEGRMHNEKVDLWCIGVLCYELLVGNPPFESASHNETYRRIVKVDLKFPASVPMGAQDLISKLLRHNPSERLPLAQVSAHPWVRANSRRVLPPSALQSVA
Description: as §1

PDK1 = biological target: T5, PDK1 (Homo sapiens, UniProt O15530)
T5 construct: lines 1-140) and Reaction Biology
T5 sequence (O15530 1-556): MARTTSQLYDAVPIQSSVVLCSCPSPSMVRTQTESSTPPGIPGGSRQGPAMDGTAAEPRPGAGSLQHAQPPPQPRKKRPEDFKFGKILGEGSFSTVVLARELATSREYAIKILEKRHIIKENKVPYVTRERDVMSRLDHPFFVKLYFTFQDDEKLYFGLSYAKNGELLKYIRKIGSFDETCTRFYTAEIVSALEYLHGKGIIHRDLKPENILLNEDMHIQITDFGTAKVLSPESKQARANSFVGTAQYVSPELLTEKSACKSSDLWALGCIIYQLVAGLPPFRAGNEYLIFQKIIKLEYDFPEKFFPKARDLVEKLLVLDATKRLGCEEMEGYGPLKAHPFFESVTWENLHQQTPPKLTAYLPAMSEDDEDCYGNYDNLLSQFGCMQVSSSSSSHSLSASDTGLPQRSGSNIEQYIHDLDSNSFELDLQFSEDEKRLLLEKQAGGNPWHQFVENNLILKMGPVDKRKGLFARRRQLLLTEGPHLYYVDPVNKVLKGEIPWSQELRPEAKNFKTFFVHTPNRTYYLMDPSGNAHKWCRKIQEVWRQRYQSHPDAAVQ
Description: as §1

CDK9-Cyclin T1 = biological target: T6, CDK9-Cyclin T1 (Homo sapiens, UniProt P50750)
T6 construct: lines 1-140) and Reaction Biology
Description: as §1

TAO1 = biological target: T7, TAO1 (Homo sapiens, UniProt Q7L7X3)
T7 construct: lines 1-140) and Reaction Biology
T7 sequence (Q7L7X3 1-1001): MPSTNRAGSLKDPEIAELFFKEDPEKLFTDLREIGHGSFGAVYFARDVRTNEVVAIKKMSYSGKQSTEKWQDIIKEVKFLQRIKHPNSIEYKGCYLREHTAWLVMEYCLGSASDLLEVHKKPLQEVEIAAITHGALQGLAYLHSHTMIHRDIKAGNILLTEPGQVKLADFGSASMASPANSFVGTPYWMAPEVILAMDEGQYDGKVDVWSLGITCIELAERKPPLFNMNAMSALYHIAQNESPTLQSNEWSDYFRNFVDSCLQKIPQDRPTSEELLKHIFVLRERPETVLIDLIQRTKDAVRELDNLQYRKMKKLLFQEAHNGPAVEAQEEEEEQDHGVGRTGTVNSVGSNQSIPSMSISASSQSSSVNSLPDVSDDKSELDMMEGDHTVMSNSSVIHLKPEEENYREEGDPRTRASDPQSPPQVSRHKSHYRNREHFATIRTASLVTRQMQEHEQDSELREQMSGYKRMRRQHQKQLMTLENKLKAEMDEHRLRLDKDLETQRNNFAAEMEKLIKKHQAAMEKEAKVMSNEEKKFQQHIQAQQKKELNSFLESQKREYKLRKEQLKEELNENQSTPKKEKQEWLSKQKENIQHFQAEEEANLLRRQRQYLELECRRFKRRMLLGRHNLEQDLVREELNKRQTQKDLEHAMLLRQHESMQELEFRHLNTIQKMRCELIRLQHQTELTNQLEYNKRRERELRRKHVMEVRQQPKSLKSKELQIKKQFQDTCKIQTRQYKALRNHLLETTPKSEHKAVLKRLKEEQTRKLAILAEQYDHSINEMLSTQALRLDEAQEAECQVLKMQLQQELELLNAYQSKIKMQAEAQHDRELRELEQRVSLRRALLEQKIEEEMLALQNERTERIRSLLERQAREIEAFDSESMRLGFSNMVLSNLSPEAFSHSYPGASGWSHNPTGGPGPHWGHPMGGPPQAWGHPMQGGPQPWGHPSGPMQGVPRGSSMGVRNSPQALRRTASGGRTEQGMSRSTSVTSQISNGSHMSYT
Description: as §1

PRK2 = biological target: T8, PRK2 (Homo sapiens, UniProt Q16513)
T8 construct: lines 1-140) and Reaction Biology
T8 sequence (Q16513 whole entry): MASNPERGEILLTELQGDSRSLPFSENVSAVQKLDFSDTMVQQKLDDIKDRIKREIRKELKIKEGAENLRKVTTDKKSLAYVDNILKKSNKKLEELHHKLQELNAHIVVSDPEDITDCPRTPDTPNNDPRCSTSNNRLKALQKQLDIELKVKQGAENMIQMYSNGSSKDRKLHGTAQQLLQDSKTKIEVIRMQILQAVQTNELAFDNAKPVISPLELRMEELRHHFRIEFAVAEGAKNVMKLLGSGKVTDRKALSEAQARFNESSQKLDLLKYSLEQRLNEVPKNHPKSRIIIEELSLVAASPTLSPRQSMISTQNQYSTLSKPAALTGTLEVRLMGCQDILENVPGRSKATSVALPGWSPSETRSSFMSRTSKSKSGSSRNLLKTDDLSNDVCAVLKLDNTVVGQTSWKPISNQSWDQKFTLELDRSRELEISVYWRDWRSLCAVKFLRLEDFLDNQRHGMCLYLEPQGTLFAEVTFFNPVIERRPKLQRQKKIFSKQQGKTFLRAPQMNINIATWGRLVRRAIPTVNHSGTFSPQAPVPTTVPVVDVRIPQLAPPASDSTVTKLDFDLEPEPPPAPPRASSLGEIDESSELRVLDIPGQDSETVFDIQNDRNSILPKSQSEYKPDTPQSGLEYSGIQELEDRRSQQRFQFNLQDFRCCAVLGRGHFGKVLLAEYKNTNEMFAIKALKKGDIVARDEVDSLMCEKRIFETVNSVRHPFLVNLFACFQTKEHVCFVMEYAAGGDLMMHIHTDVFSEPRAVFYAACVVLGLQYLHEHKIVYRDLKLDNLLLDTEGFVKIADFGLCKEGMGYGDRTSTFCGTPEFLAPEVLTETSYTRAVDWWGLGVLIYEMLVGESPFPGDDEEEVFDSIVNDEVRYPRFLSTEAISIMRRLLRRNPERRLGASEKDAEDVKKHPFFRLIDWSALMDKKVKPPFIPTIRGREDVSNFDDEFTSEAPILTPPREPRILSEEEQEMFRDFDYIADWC
Description: as §1

MPSK1 = biological target: T9, MPSK1 (Homo sapiens, UniProt O75716)
T9 construct: lines 1-140) and Reaction Biology
T9 sequence (O75716 whole entry): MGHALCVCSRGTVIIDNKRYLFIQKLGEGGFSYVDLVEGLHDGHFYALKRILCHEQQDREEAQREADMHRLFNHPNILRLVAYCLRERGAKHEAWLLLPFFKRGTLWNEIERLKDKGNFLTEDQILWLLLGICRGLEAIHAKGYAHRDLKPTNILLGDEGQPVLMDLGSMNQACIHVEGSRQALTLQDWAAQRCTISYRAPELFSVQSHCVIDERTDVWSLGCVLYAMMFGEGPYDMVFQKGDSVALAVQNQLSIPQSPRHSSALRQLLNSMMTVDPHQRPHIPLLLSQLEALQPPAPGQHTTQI
Description: as §1

JNK2 = biological target: T10, JNK2 (Homo sapiens, UniProt P45984)
T10 construct: lines 1-140) and Reaction Biology
T10 sequence (P45984 whole entry): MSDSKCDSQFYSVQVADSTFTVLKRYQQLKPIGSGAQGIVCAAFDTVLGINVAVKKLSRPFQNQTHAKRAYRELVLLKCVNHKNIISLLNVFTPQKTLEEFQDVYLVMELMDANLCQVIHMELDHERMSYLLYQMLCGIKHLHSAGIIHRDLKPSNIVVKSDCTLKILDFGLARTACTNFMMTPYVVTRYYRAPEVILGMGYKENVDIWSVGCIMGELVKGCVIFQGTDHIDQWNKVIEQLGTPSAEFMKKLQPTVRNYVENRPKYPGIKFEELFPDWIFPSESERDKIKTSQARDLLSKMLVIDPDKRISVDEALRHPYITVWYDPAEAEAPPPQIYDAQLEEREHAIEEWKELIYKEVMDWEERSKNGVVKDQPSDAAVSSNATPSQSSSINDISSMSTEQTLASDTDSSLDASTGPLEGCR
Description: as §1

MLK1 = biological target: T11, MLK1 (Homo sapiens, UniProt P80192)
T11 construct: lines 1-140) and Reaction Biology
T11 sequence (P80192 whole entry): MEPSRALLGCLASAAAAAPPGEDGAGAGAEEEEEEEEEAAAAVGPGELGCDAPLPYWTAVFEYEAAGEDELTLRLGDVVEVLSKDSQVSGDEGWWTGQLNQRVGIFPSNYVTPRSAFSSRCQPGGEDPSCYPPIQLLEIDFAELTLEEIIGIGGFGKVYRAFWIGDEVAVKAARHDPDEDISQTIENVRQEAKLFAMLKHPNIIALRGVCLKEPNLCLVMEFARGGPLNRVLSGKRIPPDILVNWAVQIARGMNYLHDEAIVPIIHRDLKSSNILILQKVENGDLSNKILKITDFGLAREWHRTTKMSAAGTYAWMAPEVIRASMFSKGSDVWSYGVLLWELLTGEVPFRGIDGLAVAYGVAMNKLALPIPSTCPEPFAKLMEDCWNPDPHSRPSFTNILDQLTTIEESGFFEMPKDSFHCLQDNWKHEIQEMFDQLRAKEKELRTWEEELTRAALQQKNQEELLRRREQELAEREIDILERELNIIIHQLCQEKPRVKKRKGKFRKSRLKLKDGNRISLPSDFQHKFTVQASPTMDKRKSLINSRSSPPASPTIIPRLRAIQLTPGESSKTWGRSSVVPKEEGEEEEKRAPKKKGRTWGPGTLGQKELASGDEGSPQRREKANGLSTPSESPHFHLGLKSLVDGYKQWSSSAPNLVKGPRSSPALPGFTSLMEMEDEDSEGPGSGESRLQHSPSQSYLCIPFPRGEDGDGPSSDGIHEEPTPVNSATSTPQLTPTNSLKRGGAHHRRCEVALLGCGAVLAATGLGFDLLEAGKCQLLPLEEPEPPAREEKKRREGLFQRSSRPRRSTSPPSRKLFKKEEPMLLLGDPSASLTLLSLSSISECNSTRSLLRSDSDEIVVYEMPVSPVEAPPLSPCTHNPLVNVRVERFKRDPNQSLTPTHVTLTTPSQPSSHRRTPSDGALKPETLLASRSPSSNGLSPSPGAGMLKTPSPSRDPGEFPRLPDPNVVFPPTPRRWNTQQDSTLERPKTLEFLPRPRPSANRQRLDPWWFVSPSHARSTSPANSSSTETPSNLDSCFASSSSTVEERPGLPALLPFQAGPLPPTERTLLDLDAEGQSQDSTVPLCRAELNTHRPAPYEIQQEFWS
Description: as §1

STK33 = biological target: T12, STK33 (Homo sapiens, UniProt Q9BYT3)
T12 construct: lines 1-140) and Reaction Biology
Description: as §1

MST4 = biological target: T13, MST4 (Homo sapiens, UniProt Q9P289)
T13 construct: lines 1-140) and Reaction Biology
Description: as §1

Row | Structure (SMILES) | remaining activity at 1 µM (p38g MAPK) | remaining activity at 1 µM (PIM1) | remaining activity at 1 µM (ROCK 2) | remaining activity at 1 µM (Aurora B) | remaining activity at 1 µM (PDK1) | remaining activity at 1 µM (CDK9-Cyclin T1) | remaining activity at 1 µM (TAO1) | remaining activity at 1 µM (PRK2) | remaining activity at 1 µM (MPSK1) | remaining activity at 1 µM (JNK2) | remaining activity at 1 µM (MLK1) | remaining activity at 1 µM (STK33) | remaining activity at 1 µM (MST4) | further results
1 | COCCOc1ccc(-c2cn(-c3ccccc3)c3nc[nH]c(=O)c23)cc1 [DMX-5804, 5-[4-(2-methoxy-ethoxy)-phenyl]-7-phenyl-3,7-dihydro-pyrrolo[2,3-d]pyrimidin-4-one] | 117% | 98% | 104% | 29% | 89% | 113% | 120% | 90% | 103% | 103% | 9% | 97% | 102% | –
2 | Oc1ncnc2c1c(-c1ccccc1)cn2-c1ccccc1 [F1386-0303, 5,7-diphenyl-7H-pyrrolo[2,3-d]pyrimidin-4-ol] | 109% | 122% | 132% | 85% | 103% | 88% | 98% | 111% | 117% | 94% | 43% | 99% | 109% | –
3 | Nc1ncc(C(=O)NC2CN(C(=O)C3CC3)C2)c2ccc(-c3cccc(F)c3)nc12 [GNE-495] | – | – | – | – | – | – | – | – | – | – | – | – | – | residual activity (p38g MAPK; 1 μM): 93%; residual activity (PIM1; 1 μM): 103%; residual activity (ROCK 2; 1 μM): 82%; residual activity (Aurora B; 1 μM): 46%; residual activity (PDK1; 1 μM): 90%; residual activity (CDK9-Cyclin T1; 1 μM): 78%; residual activity (TAO1; 1 μM): 75%; residual activity (PRK2; 1 μM): 85%; residual activity (MPSK1; 1 μM): 100%; residual activity (JNK2; 1 μM): 100%; residual activity (MLK1; 1 μM): 25%; residual activity (STK33; 1 μM): 94%; residual activity (MST4; 1 μM): 117%
4 | O=C1Nc2ccc(I)cc2/C1=C/c1cc(Br)c(O)c(Br)c1 [GW5074] | 114% | 76% | 56% | 29% | 22% | 104% | 96% | 68% | 38% | 80% | 85% | 71% | 89% | –
5 | O=C1Cc2c([nH]c3ccc(Br)cc23)-c2ccccc2N1 [Kenpaullone] | 100% | 90% | 62% | 46% | 64% | 22% | 93% | 57% | 74% | 94% | 99% | 92% | 74% | –
